Measurements reported in US9889146B2, “Benzoxaborole compounds and uses thereof” (priority 2012, dated 2018).
≈ marks a conversion by molar mass, not a printed value. Where two headings read alike, the source gives them in different places.

How the values were obtained:
Type in all cases: cell-based
[1] = tested on: Enterobacter aerogenes (AmpC); assay: microbe, parasite or virus in culture; conditions: Klebsiella aerogenes
[2] = tested on: Enterobacter aerogenes (WT); assay: microbe, parasite or virus in culture; conditions: Klebsiella aerogenes; Enterobacter aerogenes (WT), 199 isolates; read-out: MIC90
E. coli (WT) = assay: microbe, parasite or virus in culture; conditions: Escherichia coli; E. coli (WT), 214 isolates; read-out: MIC90
[3] = tested on: Enterobacter cloacae (WT); assay: microbe, parasite or virus in culture; conditions: 202 isolates, read-out: MIC90
E. coli (ESBL) = assay: microbe, parasite or virus in culture; conditions: Escherichia coli
Proteus vulgaris (WT) = assay: microbe, parasite or virus in culture; conditions: Proteus vulgaris (WT), 41 isolates; read-out: MIC90
Klebsiella spp. (WT) = assay: microbe, parasite or virus in culture; conditions: Klebsiella spp. (WT), 159 isolates; read-out: MIC90
Klebsiella spp. (KPC) = assay: microbe, parasite or virus in culture; conditions: Klebsiella
Enterobacteriaceae = assay: organism not typed; conditions: Enterobacteriaceae, 2029 isolates; read-out: MIC90
Klebsiella spp. (ESBL) = assay: microbe, parasite or virus in culture; conditions: Klebsiella
Proteus mirabilis (WT) = assay: microbe, parasite or virus in culture; conditions: Proteus mirabilis (WT), 235 isolates; read-out: MIC90
[4] = tested on: Citrobacter freundii (AmpC); assay: microbe, parasite or virus in culture; conditions: Citrobacter freundii
S. marcescens (AmpC) = assay: microbe, parasite or virus in culture; conditions: Serratia marcescens
Providencia spp.(all) = assay: microbe, parasite or virus in culture; conditions: Providencia spp.(all), 68 isolates; read-out: MIC90
[5] = tested on: Morganella morganii (AmpC); assay: microbe, parasite or virus in culture; conditions: Morganella morganii
[6] = tested on: Enterobacter cloacae (AmpC); assay: microbe, parasite or virus in culture; conditions: Enterobacter cloacae
[7] = tested on: E. coli ATCC 25922, K. pneumoniae ATCC 13883 and P. aeruginosa ATCC 27853; assay: MIC, three strains and their mutants summarised; conditions: MIC in E. coli, P. aeruginosa and K. pneumoniae mutants versus wild-type
Method: (§1) Spontaneous Resistance Frequency was determined in vitro for GSK2251052 and the resistance mutants in E. coli ATCC 25922, K. pneumoniae ATCC 13883, and P. aeruginosa ATCC 27853 strains were characterized. GSK2251052 was prepared as described in U.S. Pat. No. 7,816,344 (the entire contents of which are hereby incorporated by reference herein). LB broth, Mueller Hinton II broth (adjusted), and Difco noble agar were obtained from Becton Dickinson (Cockeysville, Md., USA). M9 minimal broth containing 1×M9 salt, 0.5 μg/ML thiamine, 1 mM MgSO4, 0.1 mM CaCl2, 2% glucose, was obtained from Teknova (Hollister, Calif., USA). Antibacterial agents ciprofloxacin, ceftazidime, chloramphenicol, gentamycin, kanamycin, polymixin B, tobramycin and trimethoprim, and amino acids were obtained from Sigma Chemicals (St. Louis, Mo., USA). Strains were obtained from ATCC (Manassas, Va., USA).
(§2) Susceptibility tests were performed following the recommendations for aerobic bacteria (M7-A7) from the Clinical and Laboratories Standards Institute (CLSI).
(§3) Laboratory generated mutants resistant to GSK2251052 contain mutations in the editing domain of LeuRS. Six to ten GSK2251052 resistant colonies of E. coli ATCC 25922, K. pneumoniae ATCC 13883 and P. aeruginosa ATCC 27853 were selected for further analysis and their MICs to GSK2251052 were determined (Table 4-7).
GSK2251052 resistant mutants were not cross-resistant to commercial antibiotics.

[8] = tested on: P. aeruginosa ATCC 27853 wild type and mutants; assay: MIC, wild type and GSK2251052 resistant mutants; conditions: Pseudomonas aeruginosa
Method: as §1, §2, §3

[9] = tested on: E. coli ATCC 25922 wild type and mutants; assay: MIC, wild type and GSK2251052 resistant mutants; conditions: Escherichia coli
Method: as §1, §2, §3

[10] = tested on: K. pneumoniae ATCC 13883 wild type and mutants; assay: MIC, wild type and GSK2251052 resistant mutants; conditions: Klebsiella pneumoniae
Method: as §1, §2, §3

E. coli ATCC 25922 = assay: Spontaneous frequency of resistance; conditions: 24 h
Method: as §1
(§4) Selection of resistance to GSK2251052 was attempted by spreading various amounts of bacteria onto MHBII noble agar plates containing 4×MIC (minimum inhibitory concentration) or 10×MIC of GSK2251052. Colonies were counted after 24 hours and 48 hours incubation at 37° C. The resistance of these colonies was confirmed by their ability to grow on plates containing GSK2251052 at either 4× or 10×MIC. Frequency of resistance was determined by dividing the number of resistant mutants by the total number of cells plated as determined by plating dilutions of the overnight culture on LB plates.

P. aeruginosa ATCC 27853 = assay: Spontaneous frequency of resistance; conditions: 24 h
Method: as §1, §4

K. pneumoniae ATCC 13883 = assay: Spontaneous frequency of resistance; conditions: 24 h
Method: as §1, §4

P. aeruginosa = assay: In vitro activity against P. aeruginosa clinical isolates; conditions: P. aeruginosa, 2,008 clinical isolates; GSK2251052 based on potential susceptible breakpoint of ≦4 μg/mL
Method: GSK2251052 was tested for activity against P. aeruginosa, and its activity was compared to other antibiotics of known activity. The results are shown below in Tables 2a and 2b. Of 2,008 clinical isolates tested (from 2009-2010 subjects, of which 40% were from North America) greater than 90% were susceptible to GSK2251052 based on a potential susceptible breakpoint of ≦4 μg/mL.

| SMILES | MIC90 [1] [µg/mL] | MIC90 [2] [µg/mL] | MIC90 (E. coli (WT)) [µg/mL] | MIC90 (E. coli (ESBL)) [µg/mL] | MIC90 (Proteus vulgaris (WT)) [µg/mL] | MIC90 (Klebsiella spp. (WT)) [µg/mL] | MIC90 (Klebsiella spp. (KPC)) [µg/mL] | MIC90 (Enterobacteriaceae) [µg/mL] | MIC90 (Klebsiella spp. (ESBL)) [µg/mL] | MIC90 (Proteus mirabilis (WT)) [µg/mL] | MIC90 [4] [µg/mL] | MIC90 (S. marcescens (AmpC)) [µg/mL] | MIC90 (Providencia spp.(all)) [µg/mL] | MIC90 [5] [µg/mL] | % susceptible (P. aeruginosa) [%] | also measured |
| --- | --- | --- | --- | --- | --- | --- | --- | --- | --- | --- | --- | --- | --- | --- | --- | --- |
| CC1(C)S[C@@H]2[C@H](NC(=O)[C@H](N)c3ccccc3)C(=O)N2[C@H]1C(=O)O [Ampicillin] | > 64 | > 64 | > 64 | > 64 | > 64 | > 64 | > 64 | > 64 | > 64 | > 64 | > 64 | > 64 | > 64 | > 64 | – | MIC90 [3]: > 64 µg/mL; MIC90 [6]: > 64 µg/mL |
| COc1cc(Cc2cnc(N)nc2N)cc(OC)c1OC [Trimethoprim] | – | – | – | – | – | – | – | – | – | – | – | – | – | – | – | cross-resistance of GSK2251052 resistant mutants [7]: did not have any significant difference in MIC values than wild-type; MIC ([8]; ATCC27853, P wt., read-out: MICs): > 64 µg/mL; MIC ([8]; ATCC27853, read-out: MICs, mutant P 101): > 64 µg/mL; MIC ([8]; ATCC27853, read-out: MICs, mutant P106): > 64 µg/mL; MIC ([8]; ATCC27853, read-out: MICs, mutant P108): > 64 µg/mL; MIC ([9]; ATCC25922, E wt, read-out: MICs): 0.5 µg/mL (≈ 1.72 µM); MIC ([9]; ATCC25922, read-out: MICs, mutant E 101): 1 µg/mL (≈ 3.44 µM); MIC ([9]; ATCC25922, read-out: MICs, mutant E 102): 0.5 µg/mL (≈ 1.72 µM); MIC ([9]; ATCC25922, read-out: MICs, mutant E 107): 1 µg/mL (≈ 3.44 µM); MIC ([10]; ATCC13883, K wt., read-out: MICs): 1 µg/mL (≈ 3.44 µM); MIC ([10]; ATCC13883, read-out: MICs, mutant K 104): 1 µg/mL (≈ 3.44 µM); MIC ([10]; ATCC13883, read-out: MICs, mutant K 105): 1 µg/mL (≈ 3.44 µM); MIC ([10]; ATCC13883, read-out: MICs, mutant K 107): 1 µg/mL (≈ 3.44 µM); MIC ([10]; ATCC13883, read-out: MICs, mutant K 108): 1 µg/mL (≈ 3.44 µM); MIC ([10]; ATCC13883, read-out: MICs, mutant K 110): 1 µg/mL (≈ 3.44 µM) |
| C[C@@H](O)[C@H]1C(=O)N2C(C(=O)O)=C(S[C@@H]3CN[C@H](C(=O)N(C)C)C3)[C@H](C)[C@H]12 [Meropenem] | – | – | – | – | – | – | – | – | – | – | – | – | – | – | 79.3 | Frequency of Resistance (E. coli ATCC 25922; 4 X MIC): <4 × 10^−9; Frequency of Resistance (E. coli ATCC 25922; 10 X MIC): <4 × 10^−9; Frequency of Resistance (P. aeruginosa ATCC 27853; 4 X MIC): 7 × 10^−7; Frequency of Resistance (P. aeruginosa ATCC 27853; 10 X MIC): <1 × 10^−9; Frequency of Resistance (K. pneumoniae ATCC 13883; 4 X MIC): <3 × 10^−9; Frequency of Resistance (K. pneumoniae ATCC 13883; 10 X MIC): <3 × 10^−9 |
| CO/N=C(\C(=O)N[C@@H]1C(=O)N2C(C(=O)[O-])=C(C[N+]3(C)CCCC3)CS[C@H]12)c1csc(N)n1 [Cefepime] | 8 (≈ 16.6 µM) | ≤ 1 | ≤ 1 | > 32 | ≤ 1 | ≤ 1 | > 32 | 4 (≈ 8.32 µM) | > 32 | ≤ 1 | 16 (≈ 33.3 µM) | 8 (≈ 16.6 µM) | > 32 | > 32 | 75.3 | – |
